# Reference: paper PMC11167047 (Cell Death Discovery, 2024)
# Key:
# Assay in all cases: kinome screen (33PanQinase)
# Assay type in all cases: biochemical
# [1] = target: T1, EPHA3 (Homo sapiens, UniProt P29320)
# T1 construct: purchased Reaction Biology Europe GmbH (formerly ProQinase)
# T1 sequence (P29320 21-983): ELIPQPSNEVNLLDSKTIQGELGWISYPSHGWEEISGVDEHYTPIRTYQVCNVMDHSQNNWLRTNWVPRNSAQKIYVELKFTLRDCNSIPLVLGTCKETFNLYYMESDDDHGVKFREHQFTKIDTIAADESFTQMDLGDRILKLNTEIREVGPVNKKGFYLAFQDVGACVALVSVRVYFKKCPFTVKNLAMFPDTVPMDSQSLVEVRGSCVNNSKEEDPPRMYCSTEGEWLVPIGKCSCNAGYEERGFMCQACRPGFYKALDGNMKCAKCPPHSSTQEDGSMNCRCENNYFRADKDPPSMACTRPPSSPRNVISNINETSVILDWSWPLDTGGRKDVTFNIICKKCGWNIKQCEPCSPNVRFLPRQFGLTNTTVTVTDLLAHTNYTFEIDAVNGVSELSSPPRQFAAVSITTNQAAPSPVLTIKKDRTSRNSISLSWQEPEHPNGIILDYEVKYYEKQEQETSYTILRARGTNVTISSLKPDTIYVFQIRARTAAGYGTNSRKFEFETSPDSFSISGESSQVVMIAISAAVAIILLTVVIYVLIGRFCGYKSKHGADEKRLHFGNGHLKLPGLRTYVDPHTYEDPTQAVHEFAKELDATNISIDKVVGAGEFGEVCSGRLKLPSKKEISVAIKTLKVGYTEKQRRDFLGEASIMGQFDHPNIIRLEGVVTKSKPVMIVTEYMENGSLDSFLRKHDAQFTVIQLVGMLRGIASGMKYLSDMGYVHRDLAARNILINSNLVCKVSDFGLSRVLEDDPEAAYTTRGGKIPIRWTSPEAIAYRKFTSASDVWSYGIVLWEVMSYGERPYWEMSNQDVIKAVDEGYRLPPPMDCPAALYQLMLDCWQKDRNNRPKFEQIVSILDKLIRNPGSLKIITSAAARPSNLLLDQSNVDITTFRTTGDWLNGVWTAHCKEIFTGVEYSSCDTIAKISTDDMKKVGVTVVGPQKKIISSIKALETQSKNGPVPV
# Protocol: (§1) The Kinome Screening was performed by Reaction Biology Europe GmbH (http://reactionbiology.com; Freiburg i. Br., Germany).
# [2] = target: T2, EPHA7 (Homo sapiens, UniProt Q15375)
# T2 construct: purchased Reaction Biology Europe GmbH (formerly ProQinase)
# Protocol: as §1
# [3] = target: T3, FGFR3 (Homo sapiens, UniProt P22607)
# T3 construct: purchased Reaction Biology Europe GmbH (formerly ProQinase)
# Protocol: as §1
# [4] = target: T4, FGR (Homo sapiens, UniProt P09769)
# T4 construct: purchased Reaction Biology Europe GmbH (formerly ProQinase)
# Protocol: as §1
# [5] = target: T5, HIPK2 (Homo sapiens, UniProt Q9H2X6)
# T5 construct: purchased Reaction Biology Europe GmbH (formerly ProQinase)
# Protocol: as §1
# [6] = target: T6, IRAK4 (Homo sapiens, UniProt Q9NWZ3)
# T6 construct: purchased Reaction Biology Europe GmbH (formerly ProQinase)
# T6 sequence (Q9NWZ3 1-460): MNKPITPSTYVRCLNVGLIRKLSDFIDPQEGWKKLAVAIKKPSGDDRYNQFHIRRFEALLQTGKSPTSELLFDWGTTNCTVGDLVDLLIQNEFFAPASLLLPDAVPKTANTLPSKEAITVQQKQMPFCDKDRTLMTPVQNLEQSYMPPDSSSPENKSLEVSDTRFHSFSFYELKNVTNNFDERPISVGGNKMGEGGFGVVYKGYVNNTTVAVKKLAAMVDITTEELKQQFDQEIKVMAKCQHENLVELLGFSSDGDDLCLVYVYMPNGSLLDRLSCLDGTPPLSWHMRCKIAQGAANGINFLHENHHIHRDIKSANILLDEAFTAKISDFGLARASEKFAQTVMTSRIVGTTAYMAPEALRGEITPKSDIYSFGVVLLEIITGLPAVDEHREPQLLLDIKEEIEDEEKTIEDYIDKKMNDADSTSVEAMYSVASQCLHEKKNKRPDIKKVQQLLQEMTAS
# Protocol: as §1
# [7] = target: T7, JAK1 (Homo sapiens, UniProt P23458)
# T7 construct: purchased Reaction Biology Europe GmbH (formerly ProQinase)
# Protocol: as §1
# [8] = target: T8, LTK (Homo sapiens, UniProt P29376)
# T8 construct: purchased Reaction Biology Europe GmbH (formerly ProQinase)
# Protocol: as §1
# [9] = target: T9, ROCK2 (Homo sapiens, UniProt O75116)
# T9 construct: purchased Reaction Biology Europe GmbH (formerly ProQinase)
# Protocol: as §1
# [10] = target: T10, RPS6KA3 (Homo sapiens, UniProt P51812)
# T10 construct: purchased Reaction Biology Europe GmbH (formerly ProQinase)
# Protocol: as §1
# [11] = target: T11, S6Kbeta (Homo sapiens, UniProt Q9UBS0)
# T11 construct: purchased Reaction Biology Europe GmbH (formerly ProQinase)
# Protocol: as §1
# T9 sequence (O75116 whole entry): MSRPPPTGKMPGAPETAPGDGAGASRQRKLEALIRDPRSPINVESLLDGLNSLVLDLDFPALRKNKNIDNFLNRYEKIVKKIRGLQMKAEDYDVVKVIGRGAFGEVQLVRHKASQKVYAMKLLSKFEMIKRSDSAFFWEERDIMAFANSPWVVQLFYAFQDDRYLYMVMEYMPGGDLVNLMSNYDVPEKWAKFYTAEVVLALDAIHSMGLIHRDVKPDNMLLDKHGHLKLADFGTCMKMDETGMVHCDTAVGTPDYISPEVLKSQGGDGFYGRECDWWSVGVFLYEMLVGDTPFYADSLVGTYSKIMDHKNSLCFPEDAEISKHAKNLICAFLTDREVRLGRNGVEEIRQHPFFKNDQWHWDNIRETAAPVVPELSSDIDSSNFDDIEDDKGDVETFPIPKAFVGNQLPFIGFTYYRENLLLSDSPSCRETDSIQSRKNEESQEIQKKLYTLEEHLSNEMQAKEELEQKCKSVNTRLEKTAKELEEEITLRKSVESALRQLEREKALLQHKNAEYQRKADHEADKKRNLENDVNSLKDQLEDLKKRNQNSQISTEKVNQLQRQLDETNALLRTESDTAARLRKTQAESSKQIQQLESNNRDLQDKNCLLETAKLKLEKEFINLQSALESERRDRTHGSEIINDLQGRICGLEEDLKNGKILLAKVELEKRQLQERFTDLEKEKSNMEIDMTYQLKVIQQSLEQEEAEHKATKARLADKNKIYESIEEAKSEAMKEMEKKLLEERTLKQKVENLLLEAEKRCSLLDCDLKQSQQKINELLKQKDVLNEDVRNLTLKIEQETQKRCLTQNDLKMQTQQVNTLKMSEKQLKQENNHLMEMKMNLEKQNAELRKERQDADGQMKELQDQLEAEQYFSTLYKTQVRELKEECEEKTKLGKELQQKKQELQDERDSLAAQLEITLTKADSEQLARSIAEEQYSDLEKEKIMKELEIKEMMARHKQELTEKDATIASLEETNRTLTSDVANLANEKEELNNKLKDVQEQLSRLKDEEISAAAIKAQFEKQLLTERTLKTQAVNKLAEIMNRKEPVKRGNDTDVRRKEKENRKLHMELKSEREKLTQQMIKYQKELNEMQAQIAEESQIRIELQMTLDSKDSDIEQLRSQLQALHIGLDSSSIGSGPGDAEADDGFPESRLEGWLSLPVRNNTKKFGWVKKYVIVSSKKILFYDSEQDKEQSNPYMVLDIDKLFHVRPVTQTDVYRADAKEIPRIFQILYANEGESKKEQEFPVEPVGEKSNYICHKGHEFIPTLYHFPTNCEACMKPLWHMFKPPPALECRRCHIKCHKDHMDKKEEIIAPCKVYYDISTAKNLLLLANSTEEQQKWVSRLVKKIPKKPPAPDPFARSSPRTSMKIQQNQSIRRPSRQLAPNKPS
# T4 sequence (P09769 whole entry): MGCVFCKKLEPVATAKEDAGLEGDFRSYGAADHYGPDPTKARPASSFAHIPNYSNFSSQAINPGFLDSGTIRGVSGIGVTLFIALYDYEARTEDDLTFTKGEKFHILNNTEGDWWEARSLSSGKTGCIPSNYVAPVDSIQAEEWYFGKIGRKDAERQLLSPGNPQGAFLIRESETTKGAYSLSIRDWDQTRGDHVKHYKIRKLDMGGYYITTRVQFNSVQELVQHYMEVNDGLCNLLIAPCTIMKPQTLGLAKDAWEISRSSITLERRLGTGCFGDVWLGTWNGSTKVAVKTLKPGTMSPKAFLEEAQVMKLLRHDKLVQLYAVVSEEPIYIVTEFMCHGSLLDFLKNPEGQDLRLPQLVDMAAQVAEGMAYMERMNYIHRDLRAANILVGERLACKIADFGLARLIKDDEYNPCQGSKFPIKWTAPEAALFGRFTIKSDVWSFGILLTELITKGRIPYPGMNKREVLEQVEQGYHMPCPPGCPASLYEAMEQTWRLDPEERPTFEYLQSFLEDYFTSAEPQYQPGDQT
# T2 sequence (Q15375 28-998): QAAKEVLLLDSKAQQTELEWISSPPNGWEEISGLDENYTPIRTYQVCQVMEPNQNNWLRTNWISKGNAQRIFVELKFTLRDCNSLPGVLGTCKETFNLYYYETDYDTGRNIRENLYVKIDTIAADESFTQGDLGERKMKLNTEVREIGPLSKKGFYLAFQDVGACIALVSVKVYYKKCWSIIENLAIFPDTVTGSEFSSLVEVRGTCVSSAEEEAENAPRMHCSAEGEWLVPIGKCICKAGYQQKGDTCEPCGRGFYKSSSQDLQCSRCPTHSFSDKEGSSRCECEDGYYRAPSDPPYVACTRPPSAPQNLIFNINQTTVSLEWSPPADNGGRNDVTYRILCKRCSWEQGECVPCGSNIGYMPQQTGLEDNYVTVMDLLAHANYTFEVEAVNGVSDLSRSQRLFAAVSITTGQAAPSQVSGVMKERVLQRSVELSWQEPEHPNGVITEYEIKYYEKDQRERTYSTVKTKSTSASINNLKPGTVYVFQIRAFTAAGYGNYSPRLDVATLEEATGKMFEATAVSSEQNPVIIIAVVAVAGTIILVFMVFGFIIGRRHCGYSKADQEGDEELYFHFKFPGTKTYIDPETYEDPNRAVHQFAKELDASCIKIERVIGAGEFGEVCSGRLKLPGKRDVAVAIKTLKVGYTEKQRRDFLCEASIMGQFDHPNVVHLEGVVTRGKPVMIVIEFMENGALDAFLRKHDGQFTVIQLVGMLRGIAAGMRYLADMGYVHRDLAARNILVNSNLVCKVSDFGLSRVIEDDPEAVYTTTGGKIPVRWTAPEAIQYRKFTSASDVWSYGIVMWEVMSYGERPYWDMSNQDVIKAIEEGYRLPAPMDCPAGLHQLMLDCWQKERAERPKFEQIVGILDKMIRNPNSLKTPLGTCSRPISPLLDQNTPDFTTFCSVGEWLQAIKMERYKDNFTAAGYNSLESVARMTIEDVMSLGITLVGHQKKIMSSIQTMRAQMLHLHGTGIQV
# T5 sequence (Q9H2X6 whole entry): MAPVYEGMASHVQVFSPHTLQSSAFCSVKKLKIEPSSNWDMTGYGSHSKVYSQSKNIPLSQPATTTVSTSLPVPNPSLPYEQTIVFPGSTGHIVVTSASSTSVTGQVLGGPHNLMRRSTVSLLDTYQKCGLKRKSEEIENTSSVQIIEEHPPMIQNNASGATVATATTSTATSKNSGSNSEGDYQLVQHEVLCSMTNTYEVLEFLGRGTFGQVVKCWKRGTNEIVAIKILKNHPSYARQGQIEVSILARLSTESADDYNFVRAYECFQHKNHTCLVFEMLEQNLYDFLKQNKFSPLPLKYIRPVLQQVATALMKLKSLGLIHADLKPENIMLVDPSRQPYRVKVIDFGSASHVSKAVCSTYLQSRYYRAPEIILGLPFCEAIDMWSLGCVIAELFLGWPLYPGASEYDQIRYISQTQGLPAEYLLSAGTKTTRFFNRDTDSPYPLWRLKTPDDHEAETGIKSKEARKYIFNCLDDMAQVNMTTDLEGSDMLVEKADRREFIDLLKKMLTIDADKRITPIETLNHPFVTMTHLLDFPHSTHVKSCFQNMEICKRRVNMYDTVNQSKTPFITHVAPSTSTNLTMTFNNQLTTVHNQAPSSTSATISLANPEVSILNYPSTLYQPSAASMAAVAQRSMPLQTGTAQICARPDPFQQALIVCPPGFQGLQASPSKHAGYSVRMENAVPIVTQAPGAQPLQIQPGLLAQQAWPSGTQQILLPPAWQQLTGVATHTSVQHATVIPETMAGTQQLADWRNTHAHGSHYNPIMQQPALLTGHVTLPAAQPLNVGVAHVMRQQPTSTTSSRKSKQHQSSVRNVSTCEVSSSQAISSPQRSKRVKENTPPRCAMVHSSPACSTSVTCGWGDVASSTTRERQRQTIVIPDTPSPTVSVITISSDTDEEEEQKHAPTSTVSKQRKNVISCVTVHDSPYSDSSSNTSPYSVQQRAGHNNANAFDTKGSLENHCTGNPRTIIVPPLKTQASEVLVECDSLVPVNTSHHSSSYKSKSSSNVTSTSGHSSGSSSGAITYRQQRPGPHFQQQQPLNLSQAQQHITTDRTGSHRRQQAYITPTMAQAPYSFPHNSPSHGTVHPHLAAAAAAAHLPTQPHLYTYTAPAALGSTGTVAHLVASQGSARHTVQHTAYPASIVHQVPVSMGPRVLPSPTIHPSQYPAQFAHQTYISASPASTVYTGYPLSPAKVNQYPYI
# T8 sequence (P29376 17-864): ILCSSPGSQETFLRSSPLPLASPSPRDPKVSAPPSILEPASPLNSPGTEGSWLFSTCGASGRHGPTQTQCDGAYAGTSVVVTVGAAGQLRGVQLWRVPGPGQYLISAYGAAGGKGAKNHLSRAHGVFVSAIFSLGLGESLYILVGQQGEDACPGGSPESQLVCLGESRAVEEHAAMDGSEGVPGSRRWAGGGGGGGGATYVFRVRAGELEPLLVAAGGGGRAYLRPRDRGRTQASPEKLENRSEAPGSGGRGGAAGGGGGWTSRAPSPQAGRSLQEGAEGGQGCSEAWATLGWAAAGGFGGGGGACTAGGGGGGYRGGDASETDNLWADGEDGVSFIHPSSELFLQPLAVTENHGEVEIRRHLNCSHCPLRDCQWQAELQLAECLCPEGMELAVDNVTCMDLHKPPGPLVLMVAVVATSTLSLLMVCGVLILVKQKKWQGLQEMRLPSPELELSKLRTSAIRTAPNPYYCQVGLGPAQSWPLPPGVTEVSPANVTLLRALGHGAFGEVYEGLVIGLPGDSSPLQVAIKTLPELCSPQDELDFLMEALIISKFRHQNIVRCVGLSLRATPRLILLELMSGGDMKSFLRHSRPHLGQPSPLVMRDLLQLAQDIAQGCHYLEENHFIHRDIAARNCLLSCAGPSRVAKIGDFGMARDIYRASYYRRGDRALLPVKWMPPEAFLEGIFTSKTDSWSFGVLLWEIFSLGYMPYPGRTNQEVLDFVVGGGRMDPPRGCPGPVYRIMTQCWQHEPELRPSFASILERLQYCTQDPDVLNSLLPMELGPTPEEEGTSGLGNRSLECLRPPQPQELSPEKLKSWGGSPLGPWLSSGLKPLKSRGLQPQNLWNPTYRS
SMILES,residual kinase activity ([1]; 0.3 µM),residual kinase activity ([2]; 0.3 µM),residual kinase activity ([3]; 0.3 µM),residual kinase activity ([4]; 0.3 µM),residual kinase activity ([5]; 0.3 µM),residual kinase activity ([6]; 0.3 µM),residual kinase activity ([7]; 0.3 µM),residual kinase activity ([8]; 0.3 µM),residual kinase activity ([9]; 0.3 µM),residual kinase activity ([10]; 0.3 µM),residual kinase activity ([11]; 0.3 µM),also measured
COc1ccnc2[nH]cc(-c3cc(N)nc(N)c3)c12 [meriolin 16],94 % of control,107 % of control,84 % of control,105 % of control,4 % of control,50 % of control,86 % of control,98 % of control,1 % of control,39 % of control,103 % of control,residual kinase activity ([1]; 0.03 µM): 102 % of control; residual kinase activity ([2]; 0.03 µM): 122 % of control; residual kinase activity ([3]; 0.03 µM): 93 % of control; residual kinase activity ([4]; 0.03 µM): 111 % of control; residual kinase activity ([5]; 0.03 µM): 36 % of control; residual kinase activity ([6]; 0.03 µM): 83 % of control; residual kinase activity ([7]; 0.03 µM): 78 % of control; residual kinase activity ([8]; 0.03 µM): 110 % of control; residual kinase activity ([9]; 0.03 µM): 12 % of control; residual kinase activity ([10]; 0.03 µM): 85 % of control; residual kinase activity ([11]; 0.03 µM): 89 % of control
c1ccc(CNc2cc(-c3c[nH]c4ncccc34)ccn2)cc1 [meriolin 36],111 % of control,131 % of control,64 % of control,40 % of control,22 % of control,14 % of control,58 % of control,46 % of control,1 % of control,7 % of control,87 % of control,residual kinase activity ([1]; 3 µM): 103 % of control; residual kinase activity ([2]; 3 µM): 93 % of control; residual kinase activity ([3]; 3 µM): 20 % of control; residual kinase activity ([4]; 3 µM): 6 % of control; residual kinase activity ([5]; 3 µM): 3 % of control; residual kinase activity ([6]; 3 µM): 2 % of control; residual kinase activity ([7]; 3 µM): 25 % of control; residual kinase activity ([8]; 3 µM): 11 % of control; residual kinase activity ([9]; 3 µM): 0 % of control; residual kinase activity ([10]; 3 µM): 1 % of control; residual kinase activity ([11]; 3 µM): 67 % of control
